Measured values reported in US9308238B2, “Compositions and methods for modulating EMT and uses thereof” (Whitehead Institute for Biomedical Research, priority 2010, dated 2016).

B1: BMP4: Recombinant BMP4 protein obtained from Stemgent (protein, UniProt P12644 293-408, looked up)
Bone morphogenetic protein 4: SPKHHSQRARKKNKNCRRHSLYVDFSDVGWNDWIVAPPGYQAFYCHGDCPFPLADHLNSTNHAIVQTLVNSVNSSIPKACCVPTELSAISMLYLDEYDKVVLKNYQEMVVEGCGCR

Tests used:
[1] = test system: Smad transcriptional activity; assay: Smad luciferase reporter assay (SBE4-luc), HMLE^24+ cells; type: cell-based, human; conditions: HMLE^24+ cells treated with TGF-beta (5 ng/ml, 30 min)
Source text: FIGS. 12A-12F. Concomitant stimulation of Wnt and TGF-beta pathways allows HMLE^24+ cells to enter into a mesenchymal and SC-like state. (FIG. 12A) RT-PCR: SFRP1, L32 was loading control, n=3; SFRP1 mRNA levels in HMLE^24+ stably expressing two hairpin-encoding vectors (shSFRP1a and -b) compared cells expressing a control hairpin targeting GFP (shGFP), HMLE^24+-shSFRP1b were used for iEMT experiments. (FIG. 12B) Flow cytometry: Expression of CD44 and CD24 cell-surface markers in HMLE, HMLE^24+-shGFP and -shSFRP1 cells. […] (FIG. 12F) Growth curves: proliferation of indicated cell lines was monitored by the MTS assay for 3 days, 8 passages after cessation of 14 day treatment as described in (D), n=12.
Luciferase assays. […] Lysates were collected 24-48 hr after transfection, and firefly and Renilla luciferase activities were measured with a Dual-Luciferase Reporter System (Promega).

[2] = test system: primary MECs; assay: Proliferation of primary MECs; type: cell-based, human; conditions: data not shown
Source text: We also undertook to test whether the autocrine loops operating in HTwist and MSP cells enabled basal MECs to maintain their self-renewal and migratory abilities. […] In addition, we blocked autocrine Wnt signaling through application of recombinant SFRP1. After a 5-day, daily treatment with both TGF-beta inhibitors or SFRP1 in monolayer cultures, basal cells were submitted to migration and mammosphere assays in the absence of further treatment.
Primary mammary epithelial cell culture. Single-cell suspensions of primary human mammary epithelial cells (MECs) were generated from reduction mammoplasties of pre-menopausal women as previously described (Stingl et al., 2001), Data from three donors are included in this study. Primary MECs were cultured on collagen I-coated plates (Millipore) in MEGM medium (Lonza) supplemented with 1% Fetal Bovine Serum in a humidified 4% O2, 5% CO2, atmosphere.

| Molecule | upregulation of Smad-reporter activity [1] | effect on proliferation of primary MECs [2] |
| --- | --- | --- |
| TGF-beta 1: recombinant TGF-beta 1 protein, used at 5 ng/ml | 1.5 fold |  |
| B1 |  | strong anti-proliferative effect |
